According to patent US4240957A, “Dipeptide derivatives and their production” (Shionogi & Co., Ltd., priority 1974, dated 1980):

Tests used:
Format in all cases: in vivo
DS male mice [1] = assay: Anti-pentylenetetrazole activity; conditions: for Anti-pentylenetetrazol activity, ED50: given orally 60 minutes prior to pentylenetetrazol 125 mg/kg s.c., complete protection against mortality, observed two hours; for times more potent than diazepam in anti-pentylenetetrazol activity: relative to diazepam (Compound No. 5)
Source text: (1) Anti-pentylenetetrazole activity:
The convulsions were disregarded.

DS male mice [2] = assay: Taming activity (inhibition of electroshock-induced fighting); conditions: for Taming activity ED50: administered 60 minutes prior, inhibition of fighting responses, 5 pairs of mice; for times more potent than diazepam in taming activity: relative to diazepam (Compound No. 5)
Method: This test was measured on DS male mice. […] These pairs of mice were selected in the morning and used for drug test in the afternoon. The test compound was administered to both mice of the pairs 60 minutes prior to the experiment. Results were obtained as the mean percentage of inhibition of fighting responses in a group of 5 pairs and shown by ED50 [Tedeschi, et al.: J. Pharmacol Exp. Thev., 125, 28-34 (1959)].

DS male mice [3] = assay: Rotarod performance activity; conditions: fall from rod within less than 2 minutes; 10 mice per dose
Method: (3) Rotarod performance activity:
This test was measured on DS male mice. The mouse was put on a scraped rod of wood, 3 cm in diameter, turning at the rate of five rotations per minute. The mice that could remain on the rod for three or more minutes in successive trials were selected and placed in a group of 10 mice for each dose. If the mouse fell down from the rod within less than 2 minutes, the test compound was considered to be effective. Results were shown by ED50 [Dunham, et al.: J. Am. Pharm. Assoc., 46, 208 (1957)].

[4] = relative to chlordiazepoxide (Compound No. 4)

SMILES | Anti-pentylenetetrazol activity, ED50 (DS male mice [1]) [mg/kg] | times more potent than chlordiazepoxide in anti-pentylenetetrazol activity (DS male mice [1]; [4]) [times] | times more potent than chlordiazepoxide in taming activity (DS male mice [2]; [4]) [times] | times more potent than diazepam in anti-pentylenetetrazol activity (DS male mice [1]) [times] | Taming activity ED50 (DS male mice [2]) [mg/kg] | times more potent than diazepam in taming activity (DS male mice [2]) [times] | Rotarod performance ED50 (DS male mice [3]) [mg/kg]
CN(C(=O)CNC(=O)CN)c1ccc(Cl)cc1C(=O)c1ccccc1 [Compound No. 1, 2-benzoyl-4-chloro-N-methyl-N^α -glycyl-glycinanilide] | 1.0 | 2 to 3 | 2 to 3 |  |  |  | 
CN(C(=O)CNC(=O)CN)c1ccc(Cl)cc1C(=O)c1ccccc1Cl.O [Compound No. 2, 2-o-chlorobenzoyl-4-chloro-N-methyl-N^α -glycyl-glycinanilide hydrate] | 0.58 |  |  | 2 to 4 | 3.0 | 2 to 4 | 
CN(C(=O)CNC(=O)CN)c1ccc(Cl)cc1C(=O)c1ccccc1F.Cl [Compound No. 3, 2-o-fluorobenzoyl-4-chloro-N-methyl-N^α -glycyl-glycinanilide hydrochloride] | 0.33 |  |  | 2 to 4 | 1.6 | 2 to 4 | 17.0
